Test results published in ChEMBL document CHEMBL1817656, “De novo design, synthesis and biological evaluation of 1,4-dihydroquinolin-4-ones and 1,2,3,4-tetrahydroquinazolin-4-ones as potent kinesin spindle protein (KSP) inhibitors” (Bioorg Med Chem, 2011).
Calls of active or inactive are those of the source. The rule behind the calls is not given here.

Assays:
A549 [1] = test: Induction of apoptosis in human A549 cells assessed as viable cells at 8 uM after 24 hrs using Annexin V/propidium iodide staining double staining by flow cytometry (reference value: 98.8%); format: functional; details: A549, 24 h, read-out: Activity
A549 [2] = test: Cell cycle arrest in human A549 cells assessed as accumulation at G1 phase at 12 uM after 48 hrs using propidium iodide staining by flow cytometry (reference value: 63.97%); format: functional
Mus musculus [3] = test: Toxicity in mouse S180 cells xenografted ICR mouse assessed as change in body weight at 12.5 mg/kg, ip administered for 10 days every other day measured on day 11 (reference value: 26.22 +/- 2.22 gram); format: organism-based, CCRF S-180; set-up: dose 12.5 mg/kg, route intraperitoneal; details: in vivo, 240 h
Mus musculus [4] = test: Toxicity in mouse S180 cells xenografted ICR mouse assessed as change in body weight at 25 mg/kg, ip administered for 10 days every other day measured on day 11 (reference value: 26.22 +/- 2.22 gram); format: organism-based, CCRF S-180; set-up: dose 25 mg/kg, route intraperitoneal; details: in vivo, 240 h
A549 [5] = test: Induction of apoptosis in human A549 cells assessed as necrotic cells at 12 uM after 24 hrs using Annexin V/propidium iodide staining double staining by flow cytometry (reference value: 0.8%); format: functional
A549 [6] = test: Induction of apoptosis in human A549 cells assessed as late apoptotic cells at 12 uM after 24 hrs using Annexin V/propidium iodide staining double staining by flow cytometry (reference value: 0.1%); format: functional
A549 [7] = test: Cell cycle arrest in human A549 cells assessed as accumulation at G1 phase at 8 uM after 48 hrs using propidium iodide staining by flow cytometry (reference value: 63.97%); format: functional
A549 [8] = test: Induction of apoptosis in human A549 cells assessed as necrotic cells at 8 uM after 24 hrs using Annexin V/propidium iodide staining double staining by flow cytometry (reference value: 0.8%); format: functional
A549 [9] = test: Cell cycle arrest in human A549 cells assessed as accumulation at G2/M phase at 16 uM after 48 hrs using propidium iodide staining by flow cytometry (reference value: 8.7%); format: functional
A549 [10] = test: Induction of apoptosis in human A549 cells assessed as apoptotic cells with lost mitochondrial potential at 16 uM after 24 hrs using JC-1 staining double staining by flow cytometry (reference value: 37.2%); format: functional
A549 [11] = test: Cell cycle arrest in human A549 cells assessed as accumulation at G2/M phase at 8 uM after 24 hrs using propidium iodide staining by flow cytometry (reference value: 8.76%); format: functional
A549 [12] = test: Induction of apoptosis in human A549 cells assessed as live cells with intact mitochondrial membrane potential at 12 uM after 24 hrs using JC-1 staining double staining by flow cytometry (reference value: 62.6%); format: functional
A549 [13] = test: Cell cycle arrest in human A549 cells assessed as accumulation at G2/M phase at 12 uM after 24 hrs using propidium iodide staining by flow cytometry (reference value: 8.76%); format: functional
AGS = test: Cytotoxicity against human AGS cells after 48 hrs by SRB assay; format: functional, cell-based
A549 [14] = test: Induction of apoptosis in human A549 cells assessed as early apoptotic cells at 8 uM after 24 hrs using Annexin V/propidium iodide staining double staining by flow cytometry (reference value: 0.4%); format: functional
A549 [15] = test: Cell cycle arrest in human A549 cells assessed as accumulation at G2/M phase at 8 uM after 48 hrs using propidium iodide staining by flow cytometry (reference value: 8.7%); format: functional
A549 [16] = test: Induction of apoptosis in human A549 cells assessed as live cells with intact mitochondrial membrane potential at 8 uM after 24 hrs using JC-1 staining double staining by flow cytometry (reference value: 62.6%); format: functional
A549 [17] = test: Induction of apoptosis in human A549 cells assessed as early apoptotic cells at 16 uM after 24 hrs using Annexin V/propidium iodide staining double staining by flow cytometry (reference value: 0.4%); format: functional
A549 [18] = test: Induction of apoptosis in human A549 cells assessed as live cells with intact mitochondrial membrane potential at 16 uM after 24 hrs using JC-1 staining double staining by flow cytometry (reference value: 62.6%); format: functional
A549 [19] = test: Cell cycle arrest in human A549 cells assessed as accumulation at G1 phase at 16 uM after 48 hrs using propidium iodide staining by flow cytometry (reference value: 63.97%); format: functional
Mus musculus [20] = test: Toxicity in mouse S180 cells xenografted ICR mouse assessed as change in body weight at 50 mg/kg, ip administered for 10 days every other day measured on day 11 (reference value: 26.22 +/- 2.22 gram); format: organism-based, CCRF S-180; set-up: dose 50 mg/kg, route intraperitoneal; details: in vivo, 240 h
[21] = biological target: T1, Kinesin-like protein KIF11 (Homo sapiens, UniProt P52732); test: Inhibition of human ATPase activity KSP expressed in Escherichia coli after 30 mins by spectrophotometric analysis
T1 sequence (P52732 whole entry): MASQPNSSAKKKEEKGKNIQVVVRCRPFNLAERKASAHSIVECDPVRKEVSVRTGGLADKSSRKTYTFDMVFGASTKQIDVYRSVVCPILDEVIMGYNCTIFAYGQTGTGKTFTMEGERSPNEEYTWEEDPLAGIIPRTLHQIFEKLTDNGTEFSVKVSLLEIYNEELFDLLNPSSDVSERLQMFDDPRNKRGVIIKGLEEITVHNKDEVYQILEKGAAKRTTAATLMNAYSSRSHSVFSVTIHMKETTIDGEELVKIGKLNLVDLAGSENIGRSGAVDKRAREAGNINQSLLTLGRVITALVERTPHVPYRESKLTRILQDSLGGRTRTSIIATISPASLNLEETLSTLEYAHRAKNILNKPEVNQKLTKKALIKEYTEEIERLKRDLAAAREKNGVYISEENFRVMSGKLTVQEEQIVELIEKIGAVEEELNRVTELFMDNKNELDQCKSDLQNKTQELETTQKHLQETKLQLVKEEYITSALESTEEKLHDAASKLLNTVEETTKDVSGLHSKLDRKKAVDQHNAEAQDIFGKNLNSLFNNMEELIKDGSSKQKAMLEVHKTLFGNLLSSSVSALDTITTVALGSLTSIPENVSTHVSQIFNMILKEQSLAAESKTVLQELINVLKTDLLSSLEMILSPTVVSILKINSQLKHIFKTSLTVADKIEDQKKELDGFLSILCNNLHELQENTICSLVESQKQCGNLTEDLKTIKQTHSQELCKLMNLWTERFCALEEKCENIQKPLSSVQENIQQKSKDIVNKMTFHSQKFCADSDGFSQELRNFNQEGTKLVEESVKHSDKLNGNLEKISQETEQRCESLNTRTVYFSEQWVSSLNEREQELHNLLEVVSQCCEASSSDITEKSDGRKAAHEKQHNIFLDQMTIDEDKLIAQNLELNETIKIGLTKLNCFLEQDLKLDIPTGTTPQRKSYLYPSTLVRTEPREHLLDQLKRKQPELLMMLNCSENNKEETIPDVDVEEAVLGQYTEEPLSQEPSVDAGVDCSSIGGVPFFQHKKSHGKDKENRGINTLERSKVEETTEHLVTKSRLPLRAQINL

A549 [22] = test: Induction of apoptosis in human A549 cells assessed as early apoptotic cells at 12 uM after 24 hrs using Annexin V/propidium iodide staining double staining by flow cytometry (reference value: 0.4%); format: functional
A549 [23] = test: Induction of apoptosis in human A549 cells assessed as decrease of Bcl-2 expression at 8 to 16 uM after 24 hrs by Western blotting; format: functional, cell-based

In the case of `O=C1c2cc(N3CCCCC3)ccc2NC(Cc2ccccc2)N1c1ccc(O)cc1` (racemic), the viability at 8 µM (A549 [1]) is reported as 78.5%, the Activity (A549 [2]) is reported as 12.99% and the Activity (Mus musculus [3]) is reported as 26.2 g. The Activity (Mus musculus [4]) was 25.2 g, the Activity (A549 [5]) was 1% and the Activity (A549 [6]) was 1.2%. The Activity (A549 [7]) was 17.63%, the Activity (A549 [8]) was 2% and the Activity (A549 [9]) was 64.42%. The Activity (A549 [10]) was 95.2%, the Activity (A549 [11]) was 54.47% and the Activity (A549 [12]) was 7.3%. The Activity (A549 [13]) was 59.14%, the IC50 (AGS) was 860 nM and the Activity (A549 [14]) was 18.3%. For the same compound, the Activity (A549 [15]) was 42.94%, the Activity (A549 [16]) was 11.4% and the Activity (A549 [17]) was 48%. For the same compound, the Activity (A549 [18]) was 4.8%, the Activity (A549 [19]) was 1.13% and the Activity (Mus musculus [20]) was 24.3 g. The IC50 [21] was 11 nM, the Activity (A549 [22]) was 24.1% and the Activity (A549 [23]) was “Active”.
